According to US9884063B2, “Amido-substituted azole compounds” (Bayer Pharma Aktiengesellschaft, priority 2014, dated 2018):
Structures can show the parent of a compound that is named as a salt.

Assays:
[1] = molecular target: T1, TNKS1 (Homo sapiens, UniProt O95271); assay: Modified TNKS1 Assay 3 (BPS kit #80573, biotin-NAD+, 96 well); type: biochemical; conditions: human TNKS1, BPS kit #80573, 96 well
T1 sequence (O95271 1-1327): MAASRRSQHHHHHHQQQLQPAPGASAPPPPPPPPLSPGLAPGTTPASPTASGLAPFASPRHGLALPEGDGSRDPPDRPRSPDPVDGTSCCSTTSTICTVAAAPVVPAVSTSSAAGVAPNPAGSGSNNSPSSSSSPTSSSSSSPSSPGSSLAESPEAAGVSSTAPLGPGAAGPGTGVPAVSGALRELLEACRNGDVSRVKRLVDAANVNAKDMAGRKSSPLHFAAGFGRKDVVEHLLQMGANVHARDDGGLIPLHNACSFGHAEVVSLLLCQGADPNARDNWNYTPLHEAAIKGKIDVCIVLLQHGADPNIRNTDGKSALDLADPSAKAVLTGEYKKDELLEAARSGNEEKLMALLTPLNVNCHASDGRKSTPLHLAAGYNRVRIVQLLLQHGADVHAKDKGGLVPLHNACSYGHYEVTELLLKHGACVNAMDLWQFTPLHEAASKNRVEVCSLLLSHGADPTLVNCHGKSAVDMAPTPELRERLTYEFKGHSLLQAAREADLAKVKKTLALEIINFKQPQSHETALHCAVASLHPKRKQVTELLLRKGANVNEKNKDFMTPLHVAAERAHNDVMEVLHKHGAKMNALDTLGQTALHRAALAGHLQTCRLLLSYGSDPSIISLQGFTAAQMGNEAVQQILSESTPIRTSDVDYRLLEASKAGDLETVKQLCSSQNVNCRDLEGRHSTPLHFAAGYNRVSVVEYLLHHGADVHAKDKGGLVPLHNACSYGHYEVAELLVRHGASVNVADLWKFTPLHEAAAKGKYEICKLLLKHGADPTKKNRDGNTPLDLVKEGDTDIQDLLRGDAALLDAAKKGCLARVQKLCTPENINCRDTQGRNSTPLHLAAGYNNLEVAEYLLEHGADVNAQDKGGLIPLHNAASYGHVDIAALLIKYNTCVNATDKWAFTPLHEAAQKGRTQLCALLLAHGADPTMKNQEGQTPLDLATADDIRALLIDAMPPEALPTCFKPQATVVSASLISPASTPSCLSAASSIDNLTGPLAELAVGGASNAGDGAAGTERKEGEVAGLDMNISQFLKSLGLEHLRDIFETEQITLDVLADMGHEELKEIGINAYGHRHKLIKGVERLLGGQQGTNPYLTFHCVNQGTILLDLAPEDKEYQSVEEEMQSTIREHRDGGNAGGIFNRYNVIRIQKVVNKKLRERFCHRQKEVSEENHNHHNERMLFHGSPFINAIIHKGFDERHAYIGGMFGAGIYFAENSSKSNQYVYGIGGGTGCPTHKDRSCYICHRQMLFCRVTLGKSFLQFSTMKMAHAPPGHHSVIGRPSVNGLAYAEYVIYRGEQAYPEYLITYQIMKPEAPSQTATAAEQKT
Experimental: The potency of the compounds against human TNKS1 according to the invention was assessed using a commercially available biotin/streptavidin binding assay kits from BPS Bioscience, San Diego, USA (Catalog #80573 for TNKS1). The incorporation of a biotin-labeled NAD+ during the […] catalyzed ribosylation of a suitable protein substrate was detected using with a streptavidin-HRP coupled chemi-luminescent readout. The intensity of the readout signal is proportional to the incorporated NAD^+. Inhibition of TNKS1 leads to a decreased incorporation of NAD^+ and consequently to a lower readout signal intensity in the corresponding TNKS1 assays. The concentration of a test compound that inhibits the enzyme activity by 50% (corresponds to half of the normed readout signal intensity) is reported as IC50. The assay was conducted in a 96 well MTP format according to the manufacturer's protocol and using a BMG Pherastar MTP reader [BMG-Labtech, Offenburg, Germany].

[2] = tested on: wildtype Wnt signaling cascade; assay: HEK293 TOP Assay (Super TopFlash luciferase reporter, Wnt-3a stimulated); type: cell-based; conditions: Homo sapiens, HEK293 TOP reporter cell line, Wnt-3a at EC50, 16 hours incubation, compound dilution series 50 μM to 15 nM
Summary of the method: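 HEK293 cells stably carrying Super TopFlash (TOP) or FOP reporter, stimulated with recombinant human Wnt-3a (2500–5 ng/ml, two-fold steps). Both lines incubated in parallel with compound from 50 μM to 15 nM (3.16-fold) in CAFTY buffer pH 7.4 with 2 mM Ca2+ and 0.01% BSA; selectivity judged TOP vs FOP.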

[3] = tested on: HEK293 FOP control reporter cell line; assay: HEK293 FOP Assay (FOP control vector luciferase reporter); type: cell-based; conditions: Homo sapiens, HEK293 FOP control reporter cell line, 16 hours incubation, compound dilution series 50 μM to 15 nM
Summary of the method: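 Stable HEK293 line carrying the FOP vector (randomized, non-functional TCF sites; Geneticin-selected) was run in parallel with the TOP line. Cells were plated 24 h ahead at 10000/well and given recombinant human Wnt-3a at 2500–5 ng/ml. Compounds were tested at 50 μM–15 nM (3.16-fold steps) in CAFTY buffer, pH 7.4, with 2 mM Ca2+ and 0.01% BSA.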

| SMILES | IC50 [1] | IC50 ([2]; HEK293, 16 h) | IC50 [2] | IC50 ([3]; HEK293, 16 h) | IC50 [3] |
| --- | --- | --- | --- | --- | --- |
| O=C(Nc1ccc(NC(=O)c2[nH]cnc2C(=O)NCCN2CCCCC2)cc1)c1ccc(F)cc1Cl [Example 127, N^5-{4-[(2-chloro-4-fluorobenzoyl)amino]phenyl}-N^4-[2-(piperidin-1-yl)ethyl]-1H-imidazole-4,5-dicarboxamide hydrochloride] | 2 nM | – | 10 nM | 50000 nM | – |
| O=C(Nc1ccc(NC(=O)c2[nH]cnc2C(=O)NCCN2CCS(=O)(=O)CC2)cc1)c1ccc(F)cc1Cl [Example 402, N^5-{4-[(2-chloro-4-fluorobenzoyl)amino]phenyl}-N^4-[2-(1,1-dioxidothiomorpholin-4-yl)ethyl]-1H-imidazole-4,5-dicarboxamide] | 260 nM | 170 nM | – | – | – |
| CC1CCCC(C)N1CCNC(=O)c1nc[nH]c1C(=O)Nc1ccc(NC(=O)c2ccc(F)cc2Cl)cc1 (stereo not shown) [Example 401, N^5-{4-[(2-chloro-4-fluorobenzoyl)amino]phenyl}-N^4-[2-(2,6-dimethylpiperidin-1-yl)ethyl]-1H-imidazole-4,5-dicarboxamide] | 180 nM | 330 nM | – | – | 21000 nM |
| O=C(Nc1ccc(NC(=O)c2nc[nH]c2C(=O)NCCCN2CCCCC2)cc1)c1ccc(F)cc1Cl [Example 297, N^4-{4-[(2-chloro-4-fluorobenzoyl)amino]phenyl}-N^5-[3-(piperidin-1-yl)propyl]-1H-imidazole-4,5-dicarboxamide] | > 500 nM | 1050 nM | – | – | 22500 nM |
| CN1CC2(C1)CN(C(=O)c1nc[nH]c1C(=O)Nc1ccc(NC(=O)c3cc(F)c(F)cc3Cl)cc1)C2 [Example 50, N N-{4-[(2-chloro-4,5-difluorobenzoyl)amino]phenyl}-4-[(6-methyl-2,6-diazaspiro[3.3]hept-2-yl)carbonyl]-1H-imidazole-5-carboxamide] | 130 nM | 120 nM | – | – | 13000 nM |
| CN(C)CCCCCNC(=O)c1nc[nH]c1C(=O)Nc1ccc(NC(=O)c2ccc(F)cc2Cl)cc1 [Example 378, N^5-{4-[(2-chloro-4-fluorobenzoyl)amino]phenyl}-N^4-[5-(dimethylamino)pentyl]-1H-imidazole-4,5-dicarboxamide] | 60 nM | 230 nM | – | – | 27000 nM |
| CCN1CCC(CNC(=O)c2nc[nH]c2C(=O)Nc2ccc(NC(=O)c3ccc(F)cc3Cl)cc2)C1 (stereo not shown) [Example 411, N^5-{4-[(2-chloro-4-fluorobenzoyl)amino]phenyl}-N^4-[(1-ethylpyrrolidin-3-yl)methyl]-1H-imidazole-4,5-dicarboxamide] | 70 nM | 290 nM | – | – | – |
| CC(C)[C@@H](CO)NC(=O)c1nc[nH]c1C(=O)Nc1ccc(NC(=O)c2ccc(F)cc2Cl)cc1 [Example 379, N^5-{4-[(2-chloro-4-fluorobenzoyl)amino]phenyl}-N^4-[(2S)-1-hydroxy-3-methylbutan-2-yl]-1H-imidazole-4,5-dicarboxamide] | 190 nM | 3200 nM | – | – | – |
| O=C(Nc1ccc(NC(=O)c2nc[nH]c2C(=O)NCCN2CCC[C@@H](O)C2)cc1)c1ccc(F)cc1Cl [Example 272, N^4-{4-[(2-chloro-4-fluorobenzoyl)amino]phenyl}-N^5-{2-[(3R)-3-hydroxypiperidin-1-yl]ethyl}-1H-imidazole-4,5-dicarboxamide] | 70 nM | 120 nM | – | – | – |
| CN1CCC(CNC(=O)c2nc[nH]c2C(=O)Nc2ccc(NC(=O)c3ccc(F)cc3Cl)cc2)CC1 [Example 408, N^5-{4-[(2-chloro-4-fluorobenzoyl)amino]phenyl}-N^4-[(1-methylpiperidin-4-yl)methyl]-1H-imidazole-4,5-dicarboxamide] | 80 nM | 300 nM | – | – | – |

Second part, led by results:

| IC50 [1] | IC50 ([2]; HEK293, 16 h) | SMILES | IC50 [2] | IC50 ([3]; HEK293, 16 h) | IC50 [3] |
| --- | --- | --- | --- | --- | --- |
| 1 nM | 140 nM | CN(C)CCNC(=O)c1nc[nH]c1C(=O)Nc1ccc(NC(=O)c2ccc(F)cc2Cl)nc1 [Example 109, N^5-{6-[(2-chloro-4-fluorobenzoyl)amino]pyridin-3-yl}-N^4-[2-(dimethylamino)ethyl]-1H-imidazole-4,5-dicarboxamide] | – | – | 43000 nM |
| 5 nM | 70 nM | O=C(Nc1ccc(NC(=O)c2nc[nH]c2C(=O)NCCN2CCC(O)CC2)cc1)c1ccc(F)cc1Cl [Example 212, N^4-{4-[(2-chloro-4-fluorobenzoyl)amino]phenyl}-N^5-[2-(4-hydroxypiperidin-1-yl)ethyl]-1H-imidazole-4,5-dicarboxamide] | – | – | – |
| 50 nM | 270 nM | CN1CCC(NC(=O)c2nc[nH]c2C(=O)Nc2ccc(NC(=O)c3ccc(F)cc3Cl)cc2)CC1 [Example 414, N^5-{4-[(2-chloro-4-fluorobenzoyl)amino]phenyl}-N^4-(1-methylpiperidin-4-yl)-1H-imidazole-4,5-dicarboxamide] | – | – | 33000 nM |
| 20 nM | 120 nM | CCN(CC)CCNC(=O)c1nc[nH]c1C(=O)Nc1ccc(NC(=O)c2ccc(F)cc2Cl)cc1 [Example 382, N^5-{4-[(2-chloro-4-fluorobenzoyl)amino]phenyl}-N^4-[2-(diethylamino)ethyl]-1H-imidazole-4,5-dicarboxamide] | – | – | – |
| < 0.5 nM | 70 nM | O=C(Nc1ccc(NC(=O)c2[nH]cnc2C(=O)NCCN2CCCCC2)cn1)c1ccccc1Cl [Example 114, N^5-{6-[(2-chlorobenzoyl)amino]pyridin-3-yl}-N^4-[2-(piperidin-1-yl)ethyl]-1H-imidazole-4,5-dicarboxamide] | – | – | – |
| 50 nM | 310 nM | CN1CCCC1CCNC(=O)c1nc[nH]c1C(=O)Nc1ccc(NC(=O)c2ccc(F)cc2Cl)cc1 (stereo not shown) [Example 385, N^5-{4-[(2-chloro-4-fluorobenzoyl)amino]phenyl}-N^4-[2-(1-methylpyrrolidin-2-yl)ethyl]-1H-imidazole-4,5-dicarboxamide] | – | – | – |
| 7 nM | 120 nM | COC1CCN(CCNC(=O)c2[nH]cnc2C(=O)Nc2ccc(NC(=O)c3ccc(F)cc3Cl)cc2)C1 (stereo not shown) [Example 265, N^4-{4-[(2-chloro-4-fluorobenzoyl)amino]phenyl}-N^5-[2-(3-methoxypyrrolidin-1-yl)ethyl]-1H-imidazole-4,5-dicarboxamide] | – | – | – |
| 30 nM | 140 nM | CN(C)C(C)(C)CNC(=O)c1nc[nH]c1C(=O)Nc1ccc(NC(=O)c2ccc(F)cc2Cl)cc1 [Example 412, N^5-{4-[(2-chloro-4-fluorobenzoyl)amino]phenyl}-N^4-[2-(dimethylamino)-2-methylpropyl]-1H-imidazole-4,5-dicarboxamide] | – | – | – |
